Several values for one entry are separate records, joined by “and”; a condition that tells them apart may be missing. Identical values can stand only once. Like-named read-outs stand apart in the source and are kept apart here.
Experiment: First-in-human clinical study: plasma and whole blood PK of INX-315 (oral QD, ASD tablet)
Format: in vivo
Parameters: AUC Plasma / AUC Whole Blood: unit not given here
From the text: All INX-315 tablets were taken at approximately the same time(s) each day.
Samples will also be collected pre-dose on Cycle 1 Days 2, 8, 16, and Day 22, and pre-dose on Day 1 of each subsequent cycle.
Standard non-compartmental PK parameters were estimated.
Geometric mean and geometric CV % will be included in the summary statistics.
PK parameters will be summarized descriptively by dosing cohort. AUC and Cmax values will also be presented in scatter plots. Dose proportionality will be assessed for AUC and Cmax using a power model. The 90% CI of the slope for each PK parameter will be estimated from the model and presented in a summary table.
Cohort 1 enrollment of 6 subjects dosed at 100 mg oral QD was completed in October of 2023.
Patients were upgraded to the 200 mg QD dose level and PK/PD plasma parameters were measured (FIG. 18A).
Patients were administered the 200 mg QD and 300 mg QD dose levels and PK/PD plasma parameters were measured.

[1] = Cohort 1 (100 mg QD), Day 1, individual subjects
[2] = Cohort 1 (100 mg QD), Day 15, individual subjects
[3] = Cohort 2 (200 mg QD), Day 1, individual subjects
[4] = Cohort 2 (200 mg QD), Day 15, individual subjects
[5] = Cohort 3 (300 mg QD), Day 1, individual subjects
[6] = human, plasma, oral, 100 mg, 100 mg QD (n = 6)
[7] = human, plasma, oral, 200 mg, 200 mg QD (n = 2)

NS(=O)(=O)c1ccc(Nc2ncc3cc4n(c3n2)C2(CCCCC2)C(=O)NN4)cc1 [INX-315]
Mean free plasma trough concentration (100 mg QD, C 1 D 1 (Day 1)): 2.98 (6) ng/mL and 2.98 ng/mL
Mean free plasma trough concentration (100 mg QD, C 1 D 7 (Day 7)): 5.7 (6) ng/mL and 5.71 ng/mL
Mean free plasma trough concentration (100 mg QD, C 1 D 14): 4.72 ng/mL
Mean free plasma trough concentration (100 mg QD, C 1 D 15): 5.43 ng/mL
Mean free plasma trough concentration (100 mg QD, C 1 D 21): 4.72 ng/mL
Mean free plasma trough concentration (100 mg QD, C 2 D 1): 4.32 ng/mL
Mean free plasma trough concentration (100 mg QD, C 3 D 1): 4.27 ng/mL
Mean free plasma trough concentration (100 mg QD, C 4 D 1): 5.91 ng/mL
Mean free plasma trough concentration (200 mg QD, C 1 D 1 (Day 1)): 7.3 (2) ng/mL and 7.31 ng/mL
Mean free plasma trough concentration (200 mg QD, C 1 D 7 (Day 7)): 10.2 (2) ng/mL and 10.16 ng/mL
AUC Plasma [1]: 2532 and 1886 and 3391 and 2271 and 3370 and 640.8
AUC Whole Blood [1]: 44857 and 38499 and 41732 and 33139 and 60740 and 13440
AUC Plasma [2]: 1276 and 5858 and 3444 and 6910 and 1951
AUC Whole Blood [2]: 37642 and 44316 and 118285 and 31754
time to steady state trough concentrations (Cohort 1, 100 mg QD): ≤ 7 days
AUC Plasma [3]: 4955 and 7528 and 11982 and 19801
AUC Whole Blood [3]: 132257 and 94340 and 131625
AUC Plasma [4]: 6987 and 6286 and 18669 and 13618
AUC Whole Blood [4]: 94895 and 236613 and 183345 and 112733
AUC Plasma [5]: 12111 and 11382 and 8338 and 11173
AUC Whole Blood [5]: 149733 and 88350 and 116734 and 106858
half-life (human, plasma and whole blood, oral, 100 mg, preliminary data of the expanded cohort 1, 100 mg QD, read-out: t1/2 (converted)): ≥ 12 h
concentration at 0.5 h [6]: 18.9 ng/mL
concentration at 1 h [6]: 71.4 ng/mL
concentration at 2 h [6]: 158 ng/mL
concentration at 6 h [6]: 132 ng/mL
concentration at 8 h [6]: 121 ng/mL
concentration at 24 h (human, plasma, oral, 100 mg, 100 mg QD (n = 6), […], read-out: Mean plasma concentration): 57.4 ng/mL
AUC (human, plasma, oral, 100 mg, plasma, 100 mg QD (n = 6), read-out: Total Area (AUC)): 2400 ng·h/mL
Cmax (human, plasma, oral, 100 mg, plasma, 100 mg QD, Day 1 (Example 10), read-out: Cmax): 148 ng/mL
AUC(0-t) (human, plasma, oral, 100 mg, plasma, 100 mg QD, Day 1, Cohort 1 (Table 27), read-out: AUClast, geometric mean): 2640 ng·h/mL
Cmax (human, plasma, oral, 100 mg, plasma, 100 mg QD, Day 1, Cohort 1 (Table 27), read-out: Cmax, geometric mean): 193 ng/mL
Tmax (human, plasma, oral, 100 mg, plasma, 100 mg QD, Day 1, Cohort 1 (Table 27), read-out: Tmax, median): 2 h
half-life (human, plasma, oral, 100 mg, plasma, 100 mg QD, Day 1, Cohort 1 (Table 27), read-out: t1/2, geometric mean (converted)): 12.6 h
AUC (human, plasma, oral, 100 mg, plasma, 100 mg QD, Day 1, average of five human patients (Example 10), read-out: AUC): 2020 ng·h/mL
AUC(0-t) (human, plasma, oral, 100 mg, plasma, 100 mg QD, Day 1, individual patients, read-out: AUClast): 3490 ng·h/mL
half-life (human, plasma, oral, 100 mg, plasma, 100 mg QD, Day 1, individual patients, read-out: t1/2 (converted)): 15.1 h
AUC (human, plasma, oral, 100 mg, plasma, 100 mg QD, Day 1 observed, mean of first two patients, read-out: AUC): 3450 ng·h/mL
Cmax (human, plasma, oral, 100 mg, plasma, 100 mg QD, Day 1 observed, mean of first two patients, read-out: Cmax): 196 ng/mL
concentration at 1 day (human, plasma, oral, 100 mg, plasma, 100 mg QD, Day 1 observed, mean of first two patients, read-out: Cmin): 103 ng/mL
concentration at 1 day (human, plasma, oral, 100 mg, plasma, 100 mg QD, Day 1 observed, mean of first two patients, read-out: Cmin^free): 5.4 ng/mL
AUC (human, plasma, oral, 100 mg, plasma, 100 mg QD, Day 15 (Example 10), read-out: AUC): 3290 ng·h/mL
Cmax (human, plasma, oral, 100 mg, plasma, 100 mg QD, Day 15 (Example 10), read-out: Cmax): 211 ng/mL
AUC(0-t) (human, plasma, oral, 100 mg, plasma, 100 mg QD, Day 15, individual patients, read-out: AUClast): 7240 ng·h/mL
Cmax (human, plasma, oral, 100 mg, plasma, 100 mg QD, Day 15, individual patients, read-out: Cmax): 457 ng/mL
half-life (human, plasma, oral, 100 mg, plasma, 100 mg QD, Day 15, individual patients, read-out: t1/2 (converted)): 17 h
AUC (human, plasma, oral, 100 mg, plasma, 100 mg QD, Day 15 observed, mean of first two patients, read-out: AUC): 6580 ng·h/mL
Cmax (human, plasma, oral, 100 mg, plasma, 100 mg QD, Day 15 observed, mean of first two patients, read-out: Cmax): 408 ng/mL
concentration at 15 day (human, plasma, oral, 100 mg, plasma, 100 mg QD, Day 15 observed, mean of first two patients, read-out: Cmin): 177 ng/mL
concentration at 15 day (human, plasma, oral, 100 mg, plasma, 100 mg QD, Day 15 observed, mean of first two patients, read-out: Cmin^free): 9.2 ng/mL
concentration at 12 h (human, plasma, oral, 100 mg, plasma, 100 mg QD, first dose level (Table 5), read-out: C12 hr): 252 ng/mL
concentration at 24 h (human, plasma, oral, 100 mg, plasma, 100 mg QD, first dose level (Table 5), read-out: C24 hr): 177 ng/mL
Cmax (human, plasma, oral, 100 mg, plasma, 100 mg QD, first dose level (Table 5), read-out: Cmax): 388 ng/mL
AUC (human, plasma, oral, 100 mg, plasma, 100 mg QD, removing esophageal cancer patient with low exposure, read-out: Total Area (adjusted AUC)): 2740 ng·h/mL
concentration at 0.5 h [7]: 69.6 ng/mL
concentration at 1 h [7]: 109 ng/mL
concentration at 2 h [7]: 246 ng/mL
concentration at 6 h [7]: 343 ng/mL
concentration at 8 h [7]: 374 ng/mL
concentration at 24 h (human, plasma, oral, 200 mg, 200 mg QD (n = 2), […], read-out: Mean plasma concentration): 141 ng/mL
AUC (human, plasma, oral, 200 mg, plasma, 200 mg QD (n = 2), read-out: Total Area (AUC)): 6260 ng·h/mL
AUC(0-t) (human, plasma, oral, 200 mg, plasma, 200 mg QD, Day 1, Cohort 2, read-out: AUClast, geometric mean): 8940 ng·h/mL
AUC(0-t) (human, plasma, oral, 200 mg, plasma, 200 mg QD, Day 1, Cohort 2, read-out: AUClast, median): 7970 ng·h/mL
Cmax (human, plasma, oral, 200 mg, plasma, 200 mg QD, Day 1, Cohort 2, read-out: Cmax, geometric mean): 590 ng/mL
Cmax (human, plasma, oral, 200 mg, plasma, 200 mg QD, Day 1, Cohort 2, read-out: Cmax, median): 577 ng/mL
Tmax (human, plasma, oral, 200 mg, plasma, 200 mg QD, Day 1, Cohort 2, read-out: Tmax, median): 8 h
Tmax (human, plasma, oral, 200 mg, plasma, 200 mg QD, Day 1, individual subjects, read-out: Tmax): 8 h
half-life (human, plasma, oral, 200 mg, plasma, 200 mg QD, Day 1, individual subjects, read-out: t1/2 (converted)): 18.1 h
AUC(0-t) (human, plasma, oral, 200 mg, plasma, 200 mg QD, Day 15, Cohort 2, read-out: AUClast, geometric mean): 12200 ng·h/mL
AUC(0-t) (human, plasma, oral, 200 mg, plasma, 200 mg QD, Day 15, Cohort 2, read-out: AUClast, median): 13700 ng·h/mL
Cmax (human, plasma, oral, 200 mg, plasma, 200 mg QD, Day 15, Cohort 2, read-out: Cmax, geometric mean): 922 ng/mL
Cmax (human, plasma, oral, 200 mg, plasma, 200 mg QD, Day 15, Cohort 2, read-out: Cmax, median): 888 ng/mL
Tmax (human, plasma, oral, 200 mg, plasma, 200 mg QD, Day 15, Cohort 2, read-out: Tmax, median): 6 h
half-life (human, plasma, oral, 200 mg, plasma, 200 mg QD, Day 15, Cohort 2, read-out: t1/2, geometric mean (converted)): 10.8 h
half-life (human, plasma, oral, 200 mg, plasma, 200 mg QD, Day 15, Cohort 2, read-out: t1/2, median (converted)): 10.5 h
Cmax (human, plasma, oral, 200 mg, plasma, 200 mg QD, Day 15, individual subjects, read-out: Cmax): 779 ng/mL
half-life (human, plasma, oral, 200 mg, plasma, 200 mg QD, Day 15, individual subjects, read-out: t1/2 (converted)): 8.36 h
AUC (human, plasma, oral, 300 mg, Cohort 3 (300 mg QD), Day 1, individual subjects, read-out: AUC Plasma): 8200 ng·h/mL
AUC (human, plasma, oral, 300 mg, Cohort 3 (300 mg QD), Day 15, Tlast = 6 hours, read-out: AUC Plasma): 4570 ng·h/mL
AUC (human, plasma, oral, 300 mg, Cohort 3 (300 mg QD), Day 15, individual subjects, read-out: AUC Plasma): 5820 ng·h/mL
AUC(0-t) (human, plasma, oral, 300 mg, plasma, 300 mg QD cohort, Day 1, geometric mean, read-out: AUClast, Geometric Mean): 9550 ng·h/mL
Cmax (human, plasma, oral, 300 mg, plasma, 300 mg QD cohort, Day 1, geometric mean, read-out: Cmax, Geometric Mean): 628 ng/mL
AUC(0-t) (human, plasma, oral, 300 mg, plasma, 300 mg QD cohort, Day 1, individual subjects, read-out: AUClast): 10200 ng·h/mL
Cmax (human, plasma, oral, 300 mg, plasma, 300 mg QD cohort, Day 1, individual subjects, read-out: Cmax): 727 ng/mL
Tmax (human, plasma, oral, 300 mg, plasma, 300 mg QD cohort, Day 1, individual subjects, read-out: Tmax): 8 h
half-life (human, plasma, oral, 300 mg, plasma, 300 mg QD cohort, Day 1, individual subjects, read-out: t1/2 (converted)): 17.3 h
AUC(0-t) (human, plasma, oral, 300 mg, plasma, 300 mg QD cohort, Day 1, median, read-out: AUClast, Median): 10200 ng·h/mL
Cmax (human, plasma, oral, 300 mg, plasma, 300 mg QD cohort, Day 1, median, read-out: Cmax, Median): 615 ng/mL
Tmax (human, plasma, oral, 300 mg, plasma, 300 mg QD cohort, Day 1, median, read-out: Tmax, Median): 8 h
AUC(0-t) (human, plasma, oral, 300 mg, plasma, 300 mg QD cohort, Day 15, individual subjects, read-out: AUClast): 5590 ng·h/mL
Cmax (human, plasma, oral, 300 mg, plasma, 300 mg QD cohort, Day 15, individual subjects, read-out: Cmax): 568 ng/mL
Tmax (human, plasma, oral, 300 mg, plasma, 300 mg QD cohort, Day 15, individual subjects, read-out: Tmax): 1 h
half-life (human, plasma, oral, 300 mg, plasma, 300 mg QD cohort, Day 15, individual subjects, read-out: t1/2 (converted)): 9.23 h
AUC(0-t) (human, plasma, po, 100 mg, plasma, 100 mg QD cohort, Day 1, geometric mean, read-out: AUClast, Geometric Mean): 2020 ng·h/mL
Cmax (human, plasma, po, 100 mg, plasma, 100 mg QD cohort, Day 1, geometric mean, read-out: Cmax, Geometric Mean): 148 ng/mL
half-life (human, plasma, po, 100 mg, plasma, 100 mg QD cohort, Day 1, geometric mean, read-out: t1/2, Geometric Mean (converted)): 13.1 h
half-life (human, plasma, po, 100 mg, plasma, 100 mg QD cohort, Day 1, individual subjects, read-out: t1/2 (converted)): 11.5 h
AUC(0-t) (human, plasma, po, 100 mg, plasma, 100 mg QD cohort, Day 1, median, read-out: AUClast, Median): 2280 ng·h/mL
Cmax (human, plasma, po, 100 mg, plasma, 100 mg QD cohort, Day 1, median, read-out: Cmax, Median): 187 ng/mL

From patent US20260041640A1 (INCYCLIX BIO, LLC, priority 2023, published 2026)
